Measured values taken from patent publication US6586405B2, “Non-covalent inhibitors of urokinase and blood vessel formation” (Corvas International, Inc., priority 2000, dated 2003).

How the values were obtained:
Assay type in all cases: biochemical
[1] = molecular target: T1, Urokinase (Abbokinase) (Homo sapiens, UniProt P00749); experiment: Urokinase assay, chromogenic substrate S-2444; settings: Ki calculated using the IC50 value; 30 minute incubation, HBSA buffer; read-out: Ki uPA
T1 construct: purchased Abbott Laboratories (manufacturer), obtained from Priority Pharmaceuticals
Protocol: (§1) The ability of compounds of the present invention to act as selective inhibitors of urokinase catalytic activity was assessed by determining the concentration of test compound which inhibited the activity of this enzyme by 50%, (IC50), and comparing this value to that determined for all or some of the following related serine proteases: recombinant tissue plasminogen activator (rt-PA), plasmin, activated protein C, chymotrypsin, factor Xa, thrombin and trypsin.
(§2) The buffer used for all assays was HBSA (10 mM HEPES, pH 7.5, 150 mM sodium chloride, 0.1% bovine serum albumin).
(§3) The assay for IC50 determinations was conducted by combining in appropriate wells of a Corning microtiter plate, 50 microliters of HBSA, 50 microliters of the test compound at a specified concentration (covering a broad concentration range) diluted in HBSA (or HBSA alone for VO (uninhibited velocity) measurement), and 50 microliters of the enzyme diluted in HESA. Following a 30 minute incubation at ambient temperature, 50 microliters of the substrate at the concentrations specified below were added to the wells, yielding a final total volume of 200 microliters (about 4 times Km). The initial velocity of chromogenic substrate hydrolysis was measured by the change in absorbance at 405 nm using a Thermo Max® Kinetic Microplate Reader over a 5 minute period in which less than 5% of the added substrate was utilized. The concentration of added inhibitor which caused a 50% decrease in the initial rate of hydrolysis was defined as the IC50 value. Ki may be calculated from the IC50 value.
Urokinase catalytic activity was determined using the chromogenic substrate […] S-2444 (L-Pyroglutamyl-glycyl-L-arginine-p-nitroaniline hydrochloride), obtained from DiaPharma Group, Inc. Urokinase (Abbokinase), manufactured by Abbott Laboratories, was obtained from Priority Pharmaceuticals and diluted to 750 pM in the HBSA assay buffer prior to use. The assay buffer was HBS (10 mM HEPES, 150 mM sodium chloride pH 7.4) with 0.1% BSA. Ki was calculated using the IC50 value.

[2] = molecular target: T2, human plasmin (Homo sapiens, UniProt P00747); experiment: Plasmin assay, chromogenic substrate S-2366; settings: 30 minute incubation, HBSA buffer, plasmin 1.0 nM
T2 construct: Purified human plasmin was obtained from Enzyme Research Laboratories, Inc; purchased Enzyme Research Laboratories, Inc
Protocol: as §1, §2, §3
Plasmin catalytic activity was determined using the chromogenic substrate, S-2366 [L-pyroglutamyl-L-prolyl-L-arginine-p-nitroaniline hydrochloride], which was obtained from DiaPharma Group. The substrate was made up in deionized water followed by dilution in HBSA prior to the assay in which the final concentration was 300 micromolar (about 2.5-times Km). Purified human plasmin was obtained from Enzyme Research Laboratories, Inc. The enzyme was diluted into HBSA prior to assay in which the final concentration was 1.0 nM.

[3] = molecular target: T3, Human rt-PA (Activase) (Homo sapiens, UniProt P00750); experiment: Recombinant tissue plasminogen activator (rt-PA) assay, chromogenic substrate Pefachrome t-PA; settings: 30 minute incubation, HBSA buffer, rt-PA 1.0 nM
T3 construct: purchased Genentech Inc
Protocol: as §1, §2, §3
rt-PA catalytic activity was determined using the substrate, Pefachrome t-PA (CH3SO2-D-hexahydrotyrosine-glycyl-L-arginine-p-nitroaniline, obtained from Pentapharm Ltd.). The substrate was made up in deionized water followed by dilution in HBSA prior to the assay in which the final concentration was 500 micromolar (about 3-times Km). Human rt-PA (Activase®) was obtained from Genentech Inc. The enzyme was reconstituted in deionized water and diluted into HBSA prior to the assay in which the final concentration was 1.0 nM.

T3 sequence (P00750 36-562): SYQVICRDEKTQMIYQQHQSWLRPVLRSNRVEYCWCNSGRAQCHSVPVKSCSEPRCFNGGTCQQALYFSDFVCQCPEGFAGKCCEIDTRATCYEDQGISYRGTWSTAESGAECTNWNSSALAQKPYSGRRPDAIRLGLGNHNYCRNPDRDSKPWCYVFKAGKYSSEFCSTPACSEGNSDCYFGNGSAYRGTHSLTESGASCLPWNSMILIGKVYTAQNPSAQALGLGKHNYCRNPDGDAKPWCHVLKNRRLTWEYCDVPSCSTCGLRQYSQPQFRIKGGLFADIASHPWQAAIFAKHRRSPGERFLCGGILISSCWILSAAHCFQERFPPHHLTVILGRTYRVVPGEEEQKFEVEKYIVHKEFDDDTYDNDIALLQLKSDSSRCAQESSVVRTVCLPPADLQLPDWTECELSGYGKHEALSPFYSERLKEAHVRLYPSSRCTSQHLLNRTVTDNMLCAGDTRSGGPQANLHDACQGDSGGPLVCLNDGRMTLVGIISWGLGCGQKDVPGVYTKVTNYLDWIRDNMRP
T2 sequence (P00747 581-810 limits assumed): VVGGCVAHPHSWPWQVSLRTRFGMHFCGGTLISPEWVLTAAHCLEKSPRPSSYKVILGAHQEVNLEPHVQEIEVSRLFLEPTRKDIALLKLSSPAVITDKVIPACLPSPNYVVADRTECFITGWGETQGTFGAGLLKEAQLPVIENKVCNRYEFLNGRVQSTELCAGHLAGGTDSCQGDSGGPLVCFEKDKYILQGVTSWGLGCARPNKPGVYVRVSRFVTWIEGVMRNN
T2 sequence (P00747 97-580 partner limits assumed): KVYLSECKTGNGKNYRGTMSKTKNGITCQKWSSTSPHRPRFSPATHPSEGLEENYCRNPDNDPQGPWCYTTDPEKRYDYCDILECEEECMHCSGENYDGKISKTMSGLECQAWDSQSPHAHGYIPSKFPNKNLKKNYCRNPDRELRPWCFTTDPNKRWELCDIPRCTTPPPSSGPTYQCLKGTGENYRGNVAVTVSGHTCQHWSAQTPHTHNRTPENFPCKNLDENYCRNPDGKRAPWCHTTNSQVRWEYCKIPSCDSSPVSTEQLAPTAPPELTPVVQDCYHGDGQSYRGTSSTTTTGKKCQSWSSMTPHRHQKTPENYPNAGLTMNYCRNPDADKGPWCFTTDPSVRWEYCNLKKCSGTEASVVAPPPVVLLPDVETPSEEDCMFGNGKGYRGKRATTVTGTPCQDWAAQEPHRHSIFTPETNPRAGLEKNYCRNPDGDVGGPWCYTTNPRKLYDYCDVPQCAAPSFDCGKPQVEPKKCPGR

| SMILES | Ki [1] [nM] | IC50 [2] [nM] | IC50 [3] [nM] |
| --- | --- | --- | --- |
| CCCCS(=O)(=O)NC(CO)C(=O)N1CCCC1C(=O)NCc1ccc(C(=N)N)cc1 (mixture of isomers) [N] | < 100 | > 2500 | > 2500 |
| N=C(N)c1ccc(CNC(=O)[C@@H]2C3CC3CN2C(=O)[C@@H](CO)NS(=O)(=O)Cc2ccccc2)cc1 (stereo partly drawn) [T] | < 100 | 250 to 2500 | > 2500 |
| C[C@H](NC(=O)[C@@H](CO)NS(=O)(=O)Cc1ccccc1)C(=O)NCc1ccc(C(=N)N)cn1 [AO] | 100 to 250 | > 2500 | > 2500 |
| N=C(N)Nc1ccc(CNC(=O)[C@@H]2C=CCN2C(=O)[C@@H](CO)NS(=O)(=O)Cc2ccccc2)cc1 [AV] | < 100 | > 2500 | > 2500 |
| N=C(N)c1ccc(CNC(=O)[C@@H]2CCN2C(=O)[C@@H](CO)NS(=O)(=O)CCc2ccccc2)cc1 [S] | 100 to 250 | > 2500 | > 2500 |
| C[C@H](NC(=O)[C@@H](CO)NS(=O)(=O)Cc1ccccc1)C(=O)NCc1ccc(C(=N)N)cc1 [AJ] | – | > 2500 | > 2500 |
| C[C@H](NC(=O)[C@@H](C)NS(=O)(=O)Cc1ccccc1)C(=O)NCc1ccc(C(=N)N)cc1 [AK] | < 100 | > 2500 | > 2500 |
| CCCCS(=O)(=O)NC(CO)C(=O)NC(C)C(=O)NCc1ccc(NC(=N)N)cc1 (stereo not drawn) [AG] | < 100 | > 2500 | > 2500 |
| CCCCS(=O)(=O)N[C@H](CO)C(=O)N[C@@H](C)C(=O)NCc1ccc(C(=N)N)s1 [L] | < 100 | > 2500 | > 2500 |
| C[C@H](NC(=O)[C@@H](CO)NS(=O)(=O)Cc1ccccc1)C(=O)NCc1ccc(NC(=N)N)s1 [AW] | 250 to 2500 | > 2500 | > 2500 |
| CC[C@H](NC(=O)[C@@H](CO)NS(=O)(=O)Cc1ccccc1)C(=O)NCc1ccc(C(=N)N)cc1 [AT] | < 100 | > 2500 | > 2500 |
| CCCCS(=O)(=O)N[C@H](CO)C(=O)N[C@@H](C)C(=O)NCCCCNC(=N)N [B] | 250 to 2500 | > 2500 | > 2500 |
| N=C(N)c1ccc(CNC(=O)C2C3CC3CN2C(=O)C(CO)NS(=O)(=O)Cc2ccccc2)cc1 (stereo not drawn) [AD] | < 100 | 250 to 2500 | > 2500 |
| C=CC[C@H](NC(=O)[C@@H](CO)NS(=O)(=O)Cc1ccccc1)C(=O)NCc1ccc(C(=N)N)cc1 [AL] | < 100 | > 2500 | > 2500 |
| C[C@H](NC(=O)[C@@H](CO)NS(=O)(=O)Cc1ccccc1)C(=O)NCc1ccc(NC(=N)N)cc1 [AN] | < 100 | > 2500 | > 2500 |
| C[C@H](NC(=O)[C@@H](CO)NS(C)(=O)=O)C(=O)NCc1ccc(C(=N)N)cc1 [AU] | 250 to 2500 | > 2500 | > 2500 |

Other lines, results leading:

| Ki [1] [nM] | IC50 [2] [nM] | IC50 [3] [nM] | SMILES |
| --- | --- | --- | --- |
| < 100 | > 2500 | > 2500 | CCCCS(=O)(=O)NC(CO)C(=O)N1CC2CC2C1C(=O)NCc1ccc(C(=N)N)cc1 (mixture of isomers) [AA] |
| < 100 | 250 to 2500 | 250 to 2500 | N=C(N)c1ccc(CNC(=O)C2C=CCN2C(=O)C(CO)NS(=O)(=O)Cc2ccccc2)s1 (mixture of isomers) [U] |
| < 100 | > 2500 | > 2500 | CCCCS(=O)(=O)N[C@H](CO)C(=O)N1CCC1C(=O)NCc1ccc(C(=N)N)cc1 (stereo partly drawn) [Z] |
| < 100 | > 2500 | > 2500 | CCCCS(=O)(=O)N[C@H](CO)C(=O)N1CC2CC2C1C(=O)NCc1ccc(C(=N)N)cc1 (stereo partly drawn) [Q] |
| < 100 | > 2500 | > 2500 | CCC[C@H](NC(=O)[C@@H](CO)NS(=O)(=O)Cc1ccccc1)C(=O)NCc1ccc(C(=N)N)cc1 [AS] |
| < 100 | > 2500 | > 2500 | CCCCS(=O)(=O)N[C@H](CO)C(=O)N[C@@H](C)C(=O)NCc1ccc(C(=N)N)cc1 [A] |
| 100 to 250 | > 2500 | > 2500 | C[C@H](NC(=O)[C@@H](CO)NS(=O)(=O)c1ccc2ccccc2c1)C(=O)NCc1ccc(C(=N)N)cc1 [AI] |
| < 100 | > 2500 | > 2500 | C[C@@H](NC(=O)[C@@H](CO)NS(=O)(=O)c1cccc2ccccc12)C(=O)NCc1ccc(C(=N)N)cc1 [AP] |
| < 100 | > 2500 | > 2500 | CCCCS(=O)(=O)NC(CO)C(=O)N1CC=CC1C(=O)NCc1ccc(C(=N)N)cc1 (mixture of isomers) [O] |
| < 100 | – | > 2500 | N=C(N)c1ccc(CNC(=O)[C@@H]2C=CCN2C(=O)[C@@H](CO)NS(=O)(=O)CCc2ccccc2)cc1 [F] |
| 250 to 2500 | > 2500 | > 2500 | N=C(N)Nc1ccc(CNC(=O)Cn2cccc(NS(=O)(=O)Cc3ccccc3)c2=O)cc1 [AR] |
| < 100 | > 2500 | > 2500 | C[C@H](NC(=O)[C@@H](CO)NS(=O)(=O)Cc1ccccc1)C(=O)NCc1ccc(NC(=N)NC(=O)OC(C)(C)C)cc1 [AM] |
| – | 250 to 2500 | > 2500 | N=C(N)c1ccc(CNC(=O)[C@@H]2CCCN2C(=O)[C@@H](CO)NS(=O)(=O)Cc2ccccc2)cc1 [J] |
| < 100 | > 2500 | 250 to 2500 | C[C@H](NC(=O)[C@@H](CO)NS(=O)(=O)Cc1ccccc1)C(=O)NCc1ccc(C(=N)N)s1 [AH] |
| < 100 | > 2500 | > 2500 | N=C(N)c1ccc(CNC(=O)[C@@H]2CCN2C(=O)[C@@H](CO)NS(=O)(=O)Cc2ccccc2)cc1 [R] |
| < 100 | 250 to 2500 | > 2500 | N=C(N)c1ccc(CNC(=O)[C@@H]2C=CCN2C(=O)[C@@H](CO)NS(=O)(=O)Cc2ccccc2)cc1 [K] |
